Reference: patent EP0028305A1, “Diaryl compounds and pharmaceutical formulations containing them” (THE WELLCOME FOUNDATION LIMITED, priority 1979, dated 1981)
Counter-ions that a name gives are not always drawn.

The molecules below were run on virus (assay: plaque reduction (PR) test). Details: plaque reduction assay, compound incorporated in nutrient agarose overlay; read-out: PR(ED50/µM).
Assay type: cell-based
Protocol: (§1) Activity may be detected by the plaque inhibition (PI) test and measured by the plaque reduction (PR) test. Both assays involve the formation of a monolayer cell culture in a petri dish followed by infection with a virus suspension, and then overlaying the culture with nutrient agarose in the form of a gel. This gel ensures that there is no spread of virus throughout the culture and thus areas of localised cell destruction or plaques are formed.
Detectable activity is measured with the plaque reduction assay. A range of concentrations of compounds of known molarity are incorporated in the nutrient agarose overlay. Plaque suppression is proportional to compound concentration. Plaque numbers are expressed as percentages of a control, and a dose response curve may be drawn. From this curve 50% of the effective dose (ED50) may be estimated.
With O=C(O)c1ccc(OCc2ccc(Cl)cc2)cc1 [Example 9, 4-Chlorobenzyl 4-carboxyphenyl ether] the EC50 was 1.6 µM. In the case of OC(CCc1ccc(Cl)c(Cl)c1)c1ccccc1 (stereo not drawn) [Example 14, 3-(3,4-dichlorophenyl)-1-phenylpropan-1-ol], the EC50 is reported as 0.66 µM. Clc1cc(COc2ccccc2)cc(Cl)c1Cl [Example 10, 3,4,5-Trichlorobenzyl phenyl ether] was tested, and the EC50 was 1.6 µM. With O=C(CCc1ccc(Cl)c(Cl)c1)c1ccccc1 [Example 15, 3-(3,4-dichlorophenyl)-1-phenylpropan-1-one] the EC50 was 0.235 µM. In the case of CCc1ccc(OCc2ccc(Cl)cc2)cc1 [Example 3, 4-Chlorobenzyl 4-ethylphenyl ether], the EC50 is reported as 0.72 µM. CC(C)(C)c1cccc(OCc2ccc(Cl)cc2)c1 [Example 4, 4-Chlorobenzyl 3-t-butylphenyl ether] gave an EC50 of 1.9 µM. In the case of N#Cc1ccc(OCc2ccc(Cl)cc2)cc1 [Example 7, 4-Chlorobenzyl 4-cyanophenyl ether], the EC50 is reported as 0.22 µM. Molecule OC(CCc1ccc(Cl)cc1)c1ccc(Cl)cc1 (stereo not drawn) [Example 13, 1,3-bis-(4-chlorophenyl)propan-1-ol] has an EC50 of 1.3 µM. Work on Clc1ccc(COc2ccc(Cl)c(Cl)c2)cc1Cl [Example 5, 3,4-Dichlorobenzyl 3,4-dichlorophenyl ether] yielded an EC50 of 0.47 µM. With OC(C=Cc1ccc(Cl)cc1)c1ccc(Cl)cc1 (stereo not drawn) [Example 18, 1,3-bis-(4-chlorophenyl)prop-2-en-1-ol] the EC50 was 1.35 µM. In the case of Clc1ccc(CC=Cc2ccccc2)cc1Cl [Example 16, 3-(3,4-dichlorophenyl)-1-phenylpropene], the EC50 is reported as 0.19 µM. OC(COc1ccc(Cl)cc1)c1ccc(Cl)cc1 (stereo not drawn) [Example 19, 2-(4-chlorophenoxy)-1-(4-chlorophenyl)ethanol] gave an EC50 of 1.5 µM. For OCc1cccc(OCc2ccc(Cl)cc2)c1 [Example 23, 4-chlorobenzyl 3-hydroxymethylphenyl ether], the EC50 was 0.53 µM. Cc1ccc(COc2ccc(C)cc2)cc1 [Example 8, 4-Methylbenzyl 4-methylphenyl ether] gave an EC50 of 0.56 µM. FC(F)(F)c1cccc(OCc2ccccc2)c1 [Example 6, Benzyl 3-trifluoromethylphenyl ether] showed an EC50 of 0.66 µM. In the case of Clc1ccc(CCCc2ccccc2)cc1Cl [Example 12, 1-(3,4-dichlorophenyl)-3-phenylpropane], the EC50 is reported as 0.068 µM. For OC(COc1ccc(Cl)c(Cl)c1)c1ccccc1 (stereo not drawn) [Example 20, 2-(3,4-dichloro^phenoxy)-l-phenylethanol], the EC50 was 2.5 µM. Clc1ccc(CNc2ccccc2)cc1Cl [Example 1, N-3,4-dichlorobenzylaniline hydrochloride] showed an EC50 of 0.17 µM. Work on OC(CNc1ccc(Cl)cc1)c1ccc(Cl)cc1 (stereo not drawn) [Example 24, 2-(4-chloroanilino)-1-(4-chlorophenyl)ethanol] yielded an EC50 of 3 µM. With OC(C=Cc1ccc(Cl)c(Cl)c1)c1ccccc1 (stereo not drawn) [Example 17, 3-(3,4-dichlorophenyl)-l-phenylprop-2-en-l-ol] the EC50 was 1.2 µM. With NC(=S)c1ccc(OCc2ccc(Cl)cc2)cc1 [Example 21, 4-(4-chlorobenzyloxy)benzenecarbothioamide] the EC50 was 0.6 µM. Work on O=[N+]([O-])c1ccccc1OCc1ccc(Cl)cc1 [Example 2, 4-chlorobenzyl 2-nitrophenyl ether] yielded an EC50 of 1.2 µM. For Clc1ccc(COc2ccc(Cl)c(Cl)c2)cc1 [Example 11, 4-Chlorobenzyl 3,4-dichlorophenyl ether], the EC50 was 0.33 µM. Molecule NC(=O)c1ccc(OCc2ccc(Cl)cc2)cc1 [Example 22, 4-(4-chlorobenzyloxy)benzamide] has an EC50 of 0.43 µM.

Same assay, conditions: second value printed in parentheses in the same cell, meaning not explained; read-out: PR(ED50/µM)
CC(C)(C)c1cccc(OCc2ccc(Cl)cc2)c1 [Example 4, 4-Chlorobenzyl 3-t-butylphenyl ether] was tested, and the EC50 was 5 µM. FC(F)(F)c1cccc(OCc2ccccc2)c1 [Example 6, Benzyl 3-trifluoromethylphenyl ether] showed an EC50 of 1.7 µM.

Each molecule was assayed on virus (assay: intranasal administration, simulation in vitro (plaque formation, compound applied to petri dish lid)). Details: lug dissolved in ethanol, applied to lids of petri dishes, ethanol evaporated; compound penetrated the agarose layer.
Assay type: cell-based
From the text: as §1
In the plaque inhibition test a filter paper disc which holds 0.01 ml when impregnated with a solution of a compound is placed on top of the agarose gel. The compound may then diffuse throughout the gel so that its greatest concentration will be around the disc and its lowest concentration towards the periphery of the petri dish. The efficacy of the compound may be detected by observing the zone of inhibition of plaque formation.
Petri dishes were prepared, as for the plaque inhibition test and the confluer sheet of cells was covered with a layer of agarose gel. The compound, of Example 12 (lug) was dissolved in ethanol, and applied to the lids of the petri dishes. When the ethanol had evaporated, leaving the compound spread over the inside of the lids, these were replaced on the petri dishes.
Clc1ccc(CCCc2ccccc2)cc1Cl [Example 12, 1-(3,4-dichlorophenyl)-3-phenylpropane] was tested, and the “inhibition of plaque formation” value was “total inhibition”.
